Assay results from ChEMBL document CHEMBL1201861, “Genomics of Drug Sensitity in Cancer screening data, Wellcome Trust Sanger Institute”.

Key:
KYSE-180 = experiment: cells; format: functional, cell-based; settings: Homo sapiens
Description: SANGER: Inhibition of human KYSE-180 cell growth in a cell viability assay.

SBC-5 = experiment: cells; format: functional, cell-based; settings: Homo sapiens
Description: SANGER: Inhibition of human SBC-5 cell growth in a cell viability assay.

SW1463 = experiment: cells; format: functional, cell-based; settings: Homo sapiens
Description: SANGER: Inhibition of human SW1463 cell growth in a cell viability assay.

SCC-25 = experiment: cells; format: functional, cell-based; settings: Homo sapiens
Description: SANGER: Inhibition of human SCC-25 cell growth in a cell viability assay.

5637 = experiment: cells; format: functional, cell-based; settings: Homo sapiens
Description: SANGER: Inhibition of human 5637 cell growth in a cell viability assay.

AGS = experiment: cells; format: functional, cell-based; settings: Homo sapiens
Description: SANGER: Inhibition of human AGS cell growth in a cell viability assay.

NUGC-3 = experiment: cells; format: functional, cell-based; settings: Homo sapiens
Description: SANGER: Inhibition of human NUGC-3 cell growth in a cell viability assay.

SW1573 = experiment: cells; format: functional, cell-based; settings: Homo sapiens
Description: SANGER: Inhibition of human SW1573 cell growth in a cell viability assay.

SKG-IIIa = experiment: cells; format: functional, cell-based; settings: Homo sapiens
Description: SANGER: Inhibition of human SKG-IIIa cell growth in a cell viability assay.

SW756 = experiment: cells; format: functional, cell-based; settings: Homo sapiens
Description: SANGER: Inhibition of human SW756 cell growth in a cell viability assay.

KYSE-150 cell line = experiment: cells; format: functional, cell-based; settings: Homo sapiens
Description: SANGER: Inhibition of human KYSE-150 cell growth in a cell viability assay.

HN = experiment: cells; format: functional, cell-based; settings: Homo sapiens
Description: SANGER: Inhibition of human HN cell growth in a cell viability assay.

NCI-H1437 = experiment: cells; format: functional, cell-based; settings: Homo sapiens
Description: SANGER: Inhibition of human NCI-H1437 cell growth in a cell viability assay.

A673 = experiment: cells; format: functional, cell-based; settings: Homo sapiens
Description: SANGER: Inhibition of human A673 cell growth in a cell viability assay.

MHH-ES-1 = experiment: cells; format: functional, cell-based; settings: Homo sapiens
Description: SANGER: Inhibition of human MHH-ES-1 cell growth in a cell viability assay.

JEG-3 = experiment: cells; format: functional, cell-based; settings: Homo sapiens
Description: SANGER: Inhibition of human JEG-3 cell growth in a cell viability assay.

PC-3 = experiment: cells; format: functional, cell-based; settings: Homo sapiens
Description: SANGER: Inhibition of human PC-3 cell growth in a cell viability assay.

NCI-H1793 = experiment: cells; format: functional, cell-based; settings: Homo sapiens
Description: SANGER: Inhibition of human NCI-H1793 cell growth in a cell viability assay.

NCI-H522 = experiment: cells; format: functional, cell-based; settings: Homo sapiens
Description: SANGER: Inhibition of human NCI-H522 cell growth in a cell viability assay.

VM-CUB-1 = experiment: cells; format: functional, cell-based; settings: Homo sapiens
Description: SANGER: Inhibition of human VM-CUB-1 cell growth in a cell viability assay.

HCC1937 = experiment: cells; format: functional, cell-based; settings: Homo sapiens
Description: SANGER: Inhibition of human HCC1937 cell growth in a cell viability assay.

SAOS-2 = experiment: cells; format: functional, cell-based; settings: Homo sapiens
Description: SANGER: Inhibition of human Saos-2 cell growth in a cell viability assay.

IGROV-1 = experiment: cells; format: functional, cell-based; settings: Homo sapiens
Description: SANGER: Inhibition of human IGROV-1 cell growth in a cell viability assay.

BCPAP = experiment: cells; format: functional, cell-based; settings: Homo sapiens
Description: SANGER: Inhibition of human BCPAP cell growth in a cell viability assay.

NCI-H1755 = experiment: cells; format: functional, cell-based; settings: Homo sapiens
Description: SANGER: Inhibition of human NCI-H1755 cell growth in a cell viability assay.

T-24 = experiment: cells; format: functional, cell-based; settings: Homo sapiens
Description: SANGER: Inhibition of human T-24 cell growth in a cell viability assay.

Detroit 562 = experiment: cells; format: functional, cell-based; settings: Homo sapiens
Description: SANGER: Inhibition of human Detroit562 cell growth in a cell viability assay.

G-401 = experiment: cells; format: functional, cell-based; settings: Homo sapiens
Description: SANGER: Inhibition of human G-401 cell growth in a cell viability assay.

EFM-19 = experiment: cells; format: functional, cell-based; settings: Homo sapiens
Description: SANGER: Inhibition of human EFM-19 cell growth in a cell viability assay.

NCI-H630 = experiment: cells; format: functional, cell-based; settings: Homo sapiens
Description: SANGER: Inhibition of human NCI-H630 cell growth in a cell viability assay.

HTC-C3 = experiment: cells; format: functional, cell-based; settings: Homo sapiens
Description: SANGER: Inhibition of human HTC-C3 cell growth in a cell viability assay.

FTC-133 = experiment: cells; format: functional, cell-based; settings: Homo sapiens
NCI-H520 = experiment: cells; format: functional, cell-based; settings: Homo sapiens
Description: SANGER: Inhibition of human NCI-H520 cell growth in a cell viability assay.

BHT-101 = experiment: cells; format: functional, cell-based; settings: Homo sapiens
Description: SANGER: Inhibition of human BHT-101 cell growth in a cell viability assay.

CAL-12T = experiment: cells; format: functional, cell-based, Homo sapiens; settings: Homo sapiens, CAL-12T
Description: SANGER: Inhibition of human CAL-12T cell growth in a cell viability assay.

MDA-MB-453 = experiment: cells; format: functional, cell-based; settings: Homo sapiens
Description: SANGER: Inhibition of human MDA-MB-453 cell growth in a cell viability assay.

MFE-280 = experiment: cells; format: functional, cell-based; settings: Homo sapiens
Description: SANGER: Inhibition of human MFE-280 cell growth in a cell viability assay.

NCI-H727 = experiment: cells; format: functional, cell-based; settings: Homo sapiens
Description: SANGER: Inhibition of human NCI-H727 cell growth in a cell viability assay.

GAMG = experiment: cells; format: functional, cell-based; settings: Homo sapiens
Description: SANGER: Inhibition of human GAMG cell growth in a cell viability assay.

ChaGo-K-1 = experiment: cells; format: functional, cell-based; settings: Homo sapiens
Description: SANGER: Inhibition of human ChaGo-K-1 cell growth in a cell viability assay.

HOS = experiment: cells; format: functional, cell-based; settings: Homo sapiens
Description: SANGER: Inhibition of human HOS cell growth in a cell viability assay.

MKN-28 = experiment: cells; format: functional, cell-based; settings: Homo sapiens
Description: SANGER: Inhibition of human MKN28 cell growth in a cell viability assay.

SW837 = experiment: cells; format: functional, cell-based; settings: Homo sapiens
Description: SANGER: Inhibition of human SW837 cell growth in a cell viability assay.

NCI-H358 = experiment: cells; format: functional, cell-based; settings: Homo sapiens
Description: SANGER: Inhibition of human NCI-H358 cell growth in a cell viability assay.

NCI-H2030 = experiment: cells; format: functional, cell-based; settings: Homo sapiens
Description: SANGER: Inhibition of human NCI-H2030 cell growth in a cell viability assay.

KP-4 = experiment: cells; format: functional, cell-based; settings: Homo sapiens
Description: SANGER: Inhibition of human KP-4 cell growth in a cell viability assay.

JIYOYE = experiment: cells; format: functional, cell-based; settings: Homo sapiens
Description: SANGER: Inhibition of human JiyoyeP-2003 cell growth in a cell viability assay.

IST-SL2 = experiment: cells; format: functional, cell-based; settings: Homo sapiens
Description: SANGER: Inhibition of human IST-SL2 cell growth in a cell viability assay.

YT = experiment: cells; format: functional, cell-based; settings: Homo sapiens
Description: SANGER: Inhibition of human YT cell growth in a cell viability assay.

Raji = experiment: cells; format: functional, cell-based; settings: Homo sapiens
Description: SANGER: Inhibition of human Raji cell growth in a cell viability assay.

MONO-MAC-6 = experiment: cells; format: functional, cell-based; settings: Homo sapiens
Description: SANGER: Inhibition of human MONO-MAC-6 cell growth in a cell viability assay.

NCCIT = experiment: SANGER: Inhibition of human NCCIT cell growth in a cell viability assay.; format: functional, cell-based
NCI-H719 = experiment: cells; format: functional, cell-based; settings: Homo sapiens
Description: SANGER: Inhibition of human NCI-H719 cell growth in a cell viability assay.

SR = experiment: cells; format: functional, cell-based; settings: Homo sapiens
Description: SANGER: Inhibition of human SR cell growth in a cell viability assay.

MHH-CALL-2 = experiment: cells; format: functional, cell-based; settings: Homo sapiens
Description: SANGER: Inhibition of human MHH-CALL-2 cell growth in a cell viability assay.

MRK-nu-1 = experiment: cells; format: functional, cell-based; settings: Homo sapiens
Description: SANGER: Inhibition of human MRK-nu-1 cell growth in a cell viability assay.

MC-CAR = experiment: cells; format: functional, cell-based; settings: Homo sapiens
Description: SANGER: Inhibition of human MC-CAR cell growth in a cell viability assay.

NCI-H1417 = experiment: cells; format: functional, cell-based; settings: Homo sapiens
Description: SANGER: Inhibition of human NCI-H1417 cell growth in a cell viability assay.

NCI-H187 = experiment: cells; format: functional, cell-based; settings: Homo sapiens
Description: SANGER: Inhibition of human NCI-H187 cell growth in a cell viability assay.

CAL-148 = experiment: cells; format: functional, cell-based; settings: Homo sapiens
Description: SANGER: Inhibition of human CAL-148 cell growth in a cell viability assay.

NCI-H1522 = experiment: cells; format: functional, cell-based; settings: Homo sapiens
Description: SANGER: Inhibition of human NCI-H1522 cell growth in a cell viability assay.

NCI-H2081 = experiment: cells; format: functional, cell-based; settings: Homo sapiens
Description: SANGER: Inhibition of human NCI-H2081 cell growth in a cell viability assay.

HMV-2 cell line = experiment: cells; format: functional, cell-based; settings: Homo sapiens
Description: SANGER: Inhibition of human HMV-II cell growth in a cell viability assay.

EB2 = experiment: cells; format: functional, cell-based; settings: Homo sapiens
Description: SANGER: Inhibition of human EB2 cell growth in a cell viability assay.

TE-15 = experiment: cells; format: functional, cell-based; settings: Homo sapiens
Description: SANGER: Inhibition of human TE-15 cell growth in a cell viability assay.

## CC(=O)c1c(C)c2cnc(Nc3ccc(N4CCNCC4)cn3)nc2n(C2CCCC2)c1=O [PALBOCICLIB]
KYSE-180
  IC50: > 4000 nM
SBC-5
  IC50: > 4000 nM
SW1463
  IC50: > 4000 nM
SCC-25
  IC50: > 4000 nM
5637
  IC50: > 4000 nM
AGS
  IC50: > 4000 nM
NUGC-3
  IC50: 2830 nM
SW1573
  IC50: > 4000 nM
SKG-IIIa
  IC50: > 4000 nM
SW756
  IC50: > 4000 nM
KYSE-150 cell line
  IC50: 1000 nM
HN
  IC50: 1540 nM
NCI-H1437
  IC50: > 4000 nM
A673
  IC50: > 4000 nM
MHH-ES-1
  IC50: 1180 nM
JEG-3
  IC50: > 4000 nM
PC-3
  IC50: 1350 nM
NCI-H1793
  IC50: > 4000 nM
NCI-H522
  IC50: > 4000 nM
VM-CUB-1
  IC50: > 4000 nM
HCC1937
  IC50: > 4000 nM
SAOS-2
  IC50: > 4000 nM
IGROV-1
  IC50: > 4000 nM
BCPAP
  IC50: 1660 nM
NCI-H1755
  IC50: > 4000 nM
T-24
  IC50: 779 nM
Detroit 562
  IC50: > 4000 nM
G-401
  IC50: 1920 nM
EFM-19
  IC50: > 4000 nM
NCI-H630
  IC50: > 4000 nM
HTC-C3
  IC50: 433 nM
FTC-133
  IC50: > 4000 nM
NCI-H520
  IC50: 747 nM
BHT-101
  IC50: 198 nM
CAL-12T
  IC50: > 4000 nM
MDA-MB-453
  IC50: > 4000 nM
MFE-280
  IC50: > 4000 nM
NCI-H727
  IC50: > 4000 nM
GAMG
  IC50: 2590 nM
ChaGo-K-1
  IC50: > 4000 nM
HOS
  IC50: 1350 nM

## Cn1c(=O)n(-c2ccc(C(C)(C)C#N)cc2)c2c3cc(-c4cnc5ccccc5c4)ccc3ncc21 [DACTOLISIB]
KYSE-180
  IC50: 46.2 nM
MKN-28
  IC50: 1090 nM
SBC-5
  IC50: 83.5 nM
SW1463
  IC50: 739 nM
SW837
  IC50: 1330 nM
SCC-25
  IC50: 89.8 nM
5637
  IC50: 79.2 nM
NCI-H358
  IC50: 1960 nM
AGS
  IC50: 48.8 nM
NUGC-3
  IC50: 16.3 nM
SW1573
  IC50: 109 nM
SKG-IIIa
  IC50: 129 nM
NCI-H2030
  IC50: 21.5 nM
SW756
  IC50: 555 nM
KYSE-150 cell line
  IC50: 25.9 nM
HN
  IC50: 5.96 nM
NCI-H1437
  IC50: 80.5 nM
A673
  IC50: > 2000 nM
MHH-ES-1
  IC50: 51.9 nM
JEG-3
  IC50: 84.1 nM
PC-3
  IC50: 5.09 nM
NCI-H1793
  IC50: 12.8 nM
NCI-H522
  IC50: 248 nM
VM-CUB-1
  IC50: 33.4 nM
HCC1937
  IC50: 187 nM
SAOS-2
  IC50: 179 nM
IGROV-1
  IC50: 136 nM
BCPAP
  IC50: 18.7 nM
NCI-H1755
  IC50: 139 nM
T-24
  IC50: 43.8 nM
Detroit 562
  IC50: 102 nM
G-401
  IC50: 40.8 nM
EFM-19
  IC50: 67.5 nM
NCI-H630
  IC50: 913 nM
HTC-C3
  IC50: 117 nM
FTC-133
  IC50: 25.1 nM
NCI-H520
  IC50: 83.1 nM
BHT-101
  IC50: 30 nM
CAL-12T
  IC50: 38.6 nM
KP-4
  IC50: 7 nM
MDA-MB-453
  IC50: > 2000 nM
MFE-280
  IC50: 9.99 nM
NCI-H727
  IC50: 412 nM
GAMG
  IC50: 19.5 nM
ChaGo-K-1
  IC50: 328 nM
HOS
  IC50: 21.1 nM

## CCNC(=O)c1noc(-c2cc(C(C)C)c(O)cc2O)c1-c1ccc(CN2CCOCC2)cc1 [LUMINESPIB]
JIYOYE
  IC50: 33.9 nM
KYSE-180
  IC50: 5.86 nM
IST-SL2
  IC50: 57.4 nM
MKN-28
  IC50: 30.1 nM
YT
  IC50: 11.8 nM
SBC-5
  IC50: 91.9 nM
Raji
  IC50: > 256 nM
MONO-MAC-6
  IC50: 38.9 nM
SW1463
  IC50: > 256 nM
NCCIT
  IC50: 66 nM
SW837
  IC50: 30.1 nM
NCI-H719
  IC50: > 256 nM
SCC-25
  IC50: 136 nM
5637
  IC50: 28.2 nM
SR
  IC50: 27.9 nM
MHH-CALL-2
  IC50: > 256 nM
NCI-H358
  IC50: 42.1 nM
AGS
  IC50: 10.6 nM
NUGC-3
  IC50: 48.3 nM
SW1573
  IC50: 58 nM
SKG-IIIa
  IC50: 178 nM
MRK-nu-1
  IC50: 23 nM
NCI-H2030
  IC50: 17 nM
SW756
  IC50: 41.6 nM
KYSE-150 cell line
  IC50: 36.1 nM
MC-CAR
  IC50: 45.7 nM
HN
  IC50: 25.9 nM
NCI-H1437
  IC50: 63.3 nM
A673
  IC50: 104 nM
NCI-H1417
  IC50: 48.9 nM
MHH-ES-1
  IC50: 12.6 nM
JEG-3
  IC50: 95.1 nM
NCI-H187
  IC50: > 256 nM
PC-3
  IC50: 132 nM
CAL-148
  IC50: 243 nM
NCI-H1793
  IC50: > 256 nM
NCI-H522
  IC50: 19.4 nM
VM-CUB-1
  IC50: 53.1 nM
NCI-H1522
  IC50: 148 nM
HCC1937
  IC50: 44.6 nM
SAOS-2
  IC50: 76 nM
IGROV-1
  IC50: 8.14 nM
BCPAP
  IC50: 26.5 nM
NCI-H1755
  IC50: 138 nM
T-24
  IC50: 53.8 nM
Detroit 562
  IC50: 38.7 nM
NCI-H2081
  IC50: 152 nM
G-401
  IC50: 10.3 nM
EFM-19
  IC50: > 256 nM
HTC-C3
  IC50: 26.1 nM
FTC-133
  IC50: > 256 nM
NCI-H520
  IC50: 26.6 nM
BHT-101
  IC50: 58.8 nM
CAL-12T
  IC50: 9.22 nM
HMV-2 cell line
  IC50: 4.49 nM
KP-4
  IC50: 36.6 nM
MDA-MB-453
  IC50: > 256 nM
MFE-280
  IC50: > 256 nM
EB2
  IC50: 72.9 nM
TE-15
  IC50: 13.4 nM
NCI-H727
  IC50: 10.3 nM
GAMG
  IC50: 13.7 nM
ChaGo-K-1
  IC50: 127 nM
HOS
  IC50: 1.38 nM
